Measurements from patent US20220313656A1, “NEW CLASS OF ANTIBIOTICS HAVING LOW MIC-VALUES TOWARDS DIFFERENT STRAINS OF BACTERIA” (priority 2019, published 2022).
Like-named read-outs stand apart in the source and are kept apart here.

How the values were obtained:
Assay in all cases: MIC, serial dilution method (CLSI)
[1] = test system: Staphylococus pseudintermedius; format: cell-based, Staphylococcus pseudintermedius
Method: (§1) These inoculums were each in diluted 1:100 in Müller Hinton (MH) broth (Sigma, Copenhagen, Denmark). From the diluted inoculums 100 μl was transferred to each well in a 96-well plate and mixed with the compound to be MIC determined. The plate was incubated for 24 hours at 37° C. (without shaking). The MIC value was determined as the lowest concentration in which no bacterial growth could be visually detected. All MIC determinations were done in duplicates. […] Since all derivatives are new, no control strains (with reference MIC values) were available.

E. coli APEC O2 = format: cell-based, Escherichia coli
Method: as §1

Listeria monocytogenes = format: cell-based
Method: as §1

Salmonella enteritidis = format: cell-based
Method: as §1

Bacillus cereus = format: cell-based
Method: as §1

Streptococcus equi = format: cell-based
Method: as §1

E. faecium = format: cell-based, Enterococcus faecium
Method: as §1

S. aureus USA300 = format: cell-based, Staphylococcus aureus
Method: as §1

S. aureus CC398 = format: cell-based, Staphylococcus aureus
Method: as §1

E. faecalis = format: cell-based, Enterococcus faecalis
Method: as §1

[2] = Staphylococus pseudintermedius, MH broth, 24 hours at 37° C., set to 256 if growth at […]
[3] = E. coli APEC O2, MH broth, 24 hours at 37° C., set to 256 if growth at […]
[4] = MH broth, 24 hours at 37° C., set to 256 if growth at […]
[5] = Salmonella enteritidis, MH broth, 24 hours at 37° C., set to 256 if growth at […]
[6] = E. faecium, MH broth, 24 hours at 37° C., set to 256 if growth at […]
[7] = S. aureus USA300, MH broth, 24 hours at 37° C., set to 256 if growth at […]
[8] = S. aureus CC398 (MRSA strain), MH broth, 24 hours at 37° C., set to 256 if growth at […]
[9] = E. faecalis, MH broth, 24 hours at 37° C., set to 256 if growth at […]
[10] = Staphylococcus pseudintermedius, 24 h, read-out: MIC
[11] = Escherichia coli, APECO2, 24 h, read-out: MIC
[12] = Salmonella enterica, ENTERITIDIS, 24 h, read-out: MIC
[13] = Enterococcus faecium, 24 h, read-out: MIC
[14] = Staphylococcus aureus, USA300, 24 h, read-out: MIC
[15] = Staphylococcus aureus, MRSA, 24 h, read-out: MIC
[16] = Enterococcus faecalis, 24 h, read-out: MIC

SMILES | MIC [1, 2] | MIC (E. coli APEC O2; [3]) | MIC (Listeria monocytogenes; [4]) | MIC (Salmonella enteritidis; [5]) | MIC (Bacillus cereus; [4]) | MIC (Streptococcus equi; [4]) | MIC (E. faecium; [6]) | MIC (S. aureus USA300; [7]) | MIC (S. aureus CC398; [8]) | MIC (E. faecalis; [9]) | MIC [1, 10] | MIC (E. coli APEC O2; [11]) | MIC (Listeria monocytogenes; 24 h, read-out: MIC) | MIC (Salmonella enteritidis; [12]) | MIC (Bacillus cereus; 24 h, read-out: MIC) | MIC (Streptococcus equi; 24 h, read-out: MIC) | MIC (E. faecium; [13]) | MIC (S. aureus USA300; [14]) | MIC (S. aureus CC398; [15]) | MIC (E. faecalis; [16])
COC(=O)CCCCC[N+](C)(C)CCC=C1c2ccccc2Sc2ccc(Cl)cc21 [Chlorprothixene 6-Methoxy-6-oxo-1-hexyl] | 8 µg/mL | 128 µg/mL | 8 µg/mL | 128 µg/mL | 8 µg/mL | 8 µg/mL | 64 µg/mL | 8 µg/mL | 8 µg/mL | 128 µg/mL | – | – | – | – | – | – | – | – | – | –
CN(C)CC/C=C1/c2ccccc2Sc2ccc(Cl)cc21.Cl [Compound S34, (Z)-3-(2-chloro-9H-thioxanthen-9-ylidene)-N,N-dimethylpropan-1-amine hydrochloride, reference compound] | – | – | – | – | – | – | – | – | – | – | 32 µg/mL | 64 µg/mL | 32 µg/mL | 128 µg/mL | 64 µg/mL | 256 µg/mL | 32 µg/mL | 32 µg/mL | 32 µg/mL | 32 µg/mL
C[N+](C)(CCC=C1c2ccccc2Sc2ccc(Cl)cc21)Cc1ccccc1 [Chlorprothixene Benzyl] | 2 µg/mL | 64 µg/mL | 32 µg/mL | 64 µg/mL | 16 µg/mL | 2 µg/mL | 16 µg/mL | 4 µg/mL | 2 µg/mL | 16 µg/mL | – | – | – | – | – | – | – | – | – | –
CC(C)CC[N+](C)(C)CC/C=C1/c2ccccc2Sc2ccc(Cl)cc21.[Br-] [Compound S37, (Z)—N-(3-(2-chloro-9H-thioxanthen-9-ylidene)propyl)-N,N,3-trimethylbutan-1-aminium bromide] | – | – | – | – | – | – | – | – | – | – | 4 µg/mL | 64 µg/mL | 8 µg/mL | 64 µg/mL | 8 µg/mL | 4 µg/mL | 16 µg/mL | 4 µg/mL | 4 µg/mL | 16 µg/mL
CC(CN1c2ccccc2Sc2ccccc21)[N+](C)(C)C.[I-] (centres unmarked) [Compound S13, N,N,N-trimethyl-1-(10H-phenothiazin-10-yl)propan-2-aminium iodide] | – | – | – | – | – | – | – | – | – | – | 64 µg/mL | 256 µg/mL | 256 µg/mL | 128 µg/mL | 128 µg/mL | 32 µg/mL | 128 µg/mL | 128 µg/mL | 128 µg/mL | 256 µg/mL
CCCCC[N+](C)(C)CC/C=C1/c2ccccc2Sc2ccc(Cl)cc21.[Br-] [Compound S38, (Z)—N-(3-(2-chloro-9H-thioxanthen-9-ylidene)propyl)-N,N-dimethylpentan-1-aminium bromide] | – | – | – | – | – | – | – | – | – | – | 2 µg/mL | 64 µg/mL | 8 µg/mL | 64 µg/mL | 8 µg/mL | 2 µg/mL | 16 µg/mL | 4 µg/mL | 4 µg/mL | 16 µg/mL
CCCCC[N+](C)(C)CCCN1c2ccccc2Sc2ccc(Cl)cc21.[Br-] [Compound S6, N-(3-(2-chloro-10H-phenothiazin-10-yl)propyl)-N,N-dimethylpentan-1-aminium bromide] | – | – | – | – | – | – | – | – | – | – | 32 µg/mL | 256 µg/mL | 64 µg/mL | 256 µg/mL | 64 µg/mL | 32 µg/mL | 64 µg/mL | 64 µg/mL | 64 µg/mL | 128 µg/mL
CC(C)CC[N+](C)(C)CCCN1c2ccccc2Sc2ccc(Cl)cc21.[Br-] [Compound S5, N-(3-(2-chloro-10H-phenothiazin-10-yl)propyl)-N,N,3-trimethylbutan-1-aminium bromide] | – | – | – | – | – | – | – | – | – | – | 8 µg/mL | 128 µg/mL | 32 µg/mL | 128 µg/mL | 64 µg/mL | 8 µg/mL | 32 µg/mL | 16 µg/mL | 16 µg/mL | 32 µg/mL

The next lines start with the values.

MIC [1, 2] | MIC (E. coli APEC O2; [3]) | MIC (Listeria monocytogenes; [4]) | MIC (Salmonella enteritidis; [5]) | MIC (Bacillus cereus; [4]) | MIC (Streptococcus equi; [4]) | MIC (E. faecium; [6]) | MIC (S. aureus USA300; [7]) | MIC (S. aureus CC398; [8]) | MIC (E. faecalis; [9]) | MIC [1, 10] | MIC (E. coli APEC O2; [11]) | MIC (Listeria monocytogenes; 24 h, read-out: MIC) | MIC (Salmonella enteritidis; [12]) | MIC (Bacillus cereus; 24 h, read-out: MIC) | MIC (Streptococcus equi; 24 h, read-out: MIC) | MIC (E. faecium; [13]) | MIC (S. aureus USA300; [14]) | MIC (S. aureus CC398; [15]) | MIC (E. faecalis; [16]) | SMILES
16 µg/mL | 256 µg/mL | 4 µg/mL | 128 µg/mL | 4 µg/mL | 8 µg/mL | 32 µg/mL | 32 µg/mL | 32 µg/mL | 32 µg/mL | – | – | – | – | – | – | – | – | – | – | CCOC(=O)CC[N+]1(C)CCCCC1CCN1c2ccccc2Sc2ccc(SC)cc21 (centres unmarked) [Thioridazine 3-Ethoxy-3-oxo-1-propyl]
– | – | – | – | – | – | – | – | – | – | 8 µg/mL | 128 µg/mL | 8 µg/mL | 128 µg/mL | 8 µg/mL | 8 µg/mL | 16 µg/mL | 8 µg/mL | 8 µg/mL | 32 µg/mL | CSc1ccc2c(c1)N(CCC1CCCC[N+]1(C)C(C)C)c1ccccc1S2.[Br-] (centres unmarked) [Compound S26, 1-isopropyl-1-methyl-2-(2-(2-(methylthio)-10H-phenothiazin-10-yl)ethyl)piperidin-1-ium bromide]
– | – | – | – | – | – | – | – | – | – | 8 µg/mL | 256 µg/mL | 32 µg/mL | 128 µg/mL | 16 µg/mL | 8 µg/mL | 64 µg/mL | 16 µg/mL | 16 µg/mL | 128 µg/mL | CSc1ccc2c(c1)N(CCC1CCCC[N+]1(C)C)c1ccccc1S2.[I-] (centres unmarked) [Compound S24, 1,1-dimethyl-2-(2-(2-(methylthio)-10H-phenothiazin-10-yl)ethyl)piperidin-1-ium iodide]
– | – | – | – | – | – | – | – | – | – | 4 µg/mL | 256 µg/mL | 32 µg/mL | 128 µg/mL | 64 µg/mL | 4 µg/mL | 16 µg/mL | 4 µg/mL | 4 µg/mL | 16 µg/mL | C=CC[N+]1(C)CCCCC1CCN1c2ccccc2Sc2ccc(SC)cc21.[Br-] (centres unmarked) [Compound S42, 1-allyl-1-methyl-2-(2-(2-(methylthio)-10H-phenothiazin-10-yl)ethyl)piperidin-1-ium bromide]
– | – | – | – | – | – | – | – | – | – | 8 µg/mL | 256 µg/mL | 64 µg/mL | 256 µg/mL | 32 µg/mL | 16 µg/mL | 32 µg/mL | 32 µg/mL | 32 µg/mL | 128 µg/mL | C[N+](C)(C)CCCN1c2ccccc2Sc2ccc(Cl)cc21.[I-] [Compound S2, 3-(2-chloro-10H-phenothiazin-10-yl)-N,N,N-trimethylpropan-1-aminium iodide]
– | – | – | – | – | – | – | – | – | – | 8 µg/mL | 128 µg/mL | 32 µg/mL | 128 µg/mL | 32 µg/mL | 32 µg/mL | 64 µg/mL | 16 µg/mL | 16 µg/mL | 128 µg/mL | CC(C)[N+](C)(C)CCCN1c2ccccc2Sc2ccc(Cl)cc21.[Br-] [Compound S4, 3-(2-chloro-10H-phenothiazin-10-yl)-N-isopropyl-N,N-dimethylpropan-1-aminium bromide]
